# Test results as given in patent US4201782A, “Thiadiazolyl cephalosporin analogs” (Shionogi & Co., Ltd., priority 1977, dated 1980).
# Key:
# S. aureus 209P JC-1 = experiment: MIC by agar-dilution, S. aureus 209P JC-1; assay type: cell-based; details: Staphylococcus aureus, as sodium salt, pH 7.0, inoculum 10^6, read-out: Minimal Inhibitory Concentration
# S. aureus Smith = experiment: MIC by agar-dilution, S. aureus Smith; assay type: cell-based; details: Staphylococcus aureus, as sodium salt, pH 7.0, inoculum 10^6, read-out: Minimal Inhibitory Concentration
# S. aureus 077 = experiment: MIC by agar-dilution, S. aureus 077; assay type: cell-based; details: Staphylococcus aureus, as sodium salt, pH 7.0, inoculum 10^6, read-out: Minimal Inhibitory Concentration
# S. aureus C-14 = experiment: MIC by agar-dilution, S. aureus C-14; assay type: cell-based; details: Staphylococcus aureus, C14, as sodium salt, pH 7.0, inoculum 10^6, read-out: Minimal Inhibitory Concentration
# S. pyogenes C-203 = experiment: MIC by agar-dilution, S. pyogenes C-203; assay type: cell-based; details: Streptococcus pyogenes, C203, as sodium salt, pH 7.0, inoculum 10^6, read-out: Minimal Inhibitory Concentration
# S. pneumoniae I = experiment: MIC by agar-dilution, S. pneumoniae I; assay type: cell-based; details: Streptococcus pneumoniae, as sodium salt, pH 7.0, inoculum 10^6, read-out: Minimal Inhibitory Concentration
# E. coli H = experiment: MIC by agar-dilution, E. coli H; assay type: cell-based; details: Escherichia coli, as sodium salt, pH 7.0, inoculum 10^6, read-out: Minimal Inhibitory Concentration
# E. coli NIHJ JC-2 = experiment: MIC by agar-dilution, E. coli NIHJ JC-2; assay type: cell-based; details: Escherichia coli, NIHJJC2, as sodium salt, pH 7.0, inoculum 10^6, read-out: Minimal Inhibitory Concentration
# E. coli EC-14 = experiment: MIC by agar-dilution, E. coli EC-14; assay type: cell-based; details: Escherichia coli, EC14, as sodium salt, pH 7.0, inoculum 10^6, read-out: Minimal Inhibitory Concentration
# E. coli 377 = experiment: MIC by agar-dilution, E. coli 377; assay type: cell-based; details: Escherichia coli, as sodium salt, pH 7.0, inoculum 10^6, read-out: Minimal Inhibitory Concentration
# E. coli 73 = experiment: MIC by agar-dilution, E. coli 73; assay type: cell-based; details: Escherichia coli, as sodium salt, pH 7.0, inoculum 10^6, read-out: Minimal Inhibitory Concentration
# K. pneumoniae SHIONOGI = experiment: MIC by agar-dilution, K. pneumoniae SHIONOGI; assay type: cell-based; details: Klebsiella pneumoniae, as sodium salt, pH 7.0, inoculum 10^6, read-out: Minimal Inhibitory Concentration
# K. pneumoniae 363 = experiment: MIC by agar-dilution, K. pneumoniae 363; assay type: cell-based; details: Klebsiella pneumoniae, as sodium salt, pH 7.0, inoculum 10^6, read-out: Minimal Inhibitory Concentration
# P. mirabilis PR-4 = experiment: MIC by agar-dilution, P. mirabilis PR-4; assay type: cell-based; details: Proteus mirabilis, PR4, as sodium salt, pH 7.0, inoculum 10^6, read-out: Minimal Inhibitory Concentration
# P. morganii No. 9 = experiment: MIC by agar-dilution, P. morganii No. 9; assay type: cell-based, Proteus morganii; details: Morganella morganii, as sodium salt, pH 7.0, inoculum 10^6, read-out: Minimal Inhibitory Concentration
# P. vulgaris CN-329 = experiment: MIC by agar-dilution, P. vulgaris CN-329; assay type: cell-based; details: Proteus vulgaris, CN329, as sodium salt, pH 7.0, inoculum 10^6, read-out: Minimal Inhibitory Concentration
# P. vulgaris No. 3 = experiment: MIC by agar-dilution, P. vulgaris No. 3; assay type: cell-based; details: Proteus vulgaris, as sodium salt, pH 7.0, inoculum 10^6, read-out: Minimal Inhibitory Concentration
# E. cloacae 233 = experiment: MIC by agar-dilution, E. cloacae 233; assay type: cell-based; details: Enterobacter cloacae, as sodium salt, pH 7.0, inoculum 10^6, read-out: Minimal Inhibitory Concentration
# E. cloacae 13047 = experiment: MIC by agar-dilution, E. cloacae 13047; assay type: cell-based; details: Enterobacter cloacae, as sodium salt, pH 7.0, inoculum 10^6, read-out: Minimal Inhibitory Concentration
# S. marcescens 13880 = experiment: MIC by agar-dilution, S. marcescens 13880; assay type: cell-based; details: Serratia marcescens, as sodium salt, pH 7.0, inoculum 10^6, read-out: Minimal Inhibitory Concentration
# P. aeruginosa 25619 = experiment: MIC by agar-dilution, P. aeruginosa 25619; assay type: cell-based; details: Pseudomonas aeruginosa, as sodium salt, pH 7.0, inoculum 10^6, read-out: Minimal Inhibitory Concentration
MIC (S. aureus 209P JC-1) [µg/mL],MIC (S. aureus Smith) [µg/mL],MIC (S. aureus 077) [µg/mL],MIC (S. aureus C-14) [µg/mL],MIC (S. pyogenes C-203) [µg/mL],MIC (S. pneumoniae I) [µg/mL],MIC (E. coli H) [µg/mL],MIC (E. coli NIHJ JC-2) [µg/mL],MIC (E. coli EC-14) [µg/mL],MIC (E. coli 377) [µg/mL],MIC (E. coli 73) [µg/mL],MIC (K. pneumoniae SHIONOGI) [µg/mL],MIC (K. pneumoniae 363) [µg/mL],MIC (P. mirabilis PR-4) [µg/mL],MIC (P. morganii No. 9) [µg/mL],MIC (P. vulgaris CN-329) [µg/mL],MIC (P. vulgaris No. 3) [µg/mL],MIC (E. cloacae 233) [µg/mL],MIC (E. cloacae 13047) [µg/mL],MIC (S. marcescens 13880) [µg/mL],SMILES,further results
6.25,6.25,6.25,6.25,3.13,6.25,0.1,0.2,0.1,0.39,0.78,0.2,0.2,0.2,0.2,0.2,0.39,6.25,12.5,0.39,"CO[C@@]1(NC(=O)C(C(=O)O)c2ccsc2)C(=O)N2C(C(=O)O)=C(CSc3nncs3)CO[C@@H]21 (stereo partly drawn) [Compound (4), 7α-methoxy-7β-[α-(3-thienyl)-α-carboxyacetamido]-3-(1,3,4-thiadiazol-5-yl)thiomethyl-1-dethia-1-oxa-3-cephem-4-carboxylic acid]",MIC (P. aeruginosa 25619): 25 µg/mL
12.5,12.5,25,25,3.13,6.25,0.2,0.39,0.39,0.78,3.13,0.39,0.39,0.39,0.78,0.78,0.78,6.25,25,1.56,"CO[C@@]1(NC(=O)C(C(=O)O)c2ccc(O)cc2)C(=O)N2C(C(=O)O)=C(CSc3nncs3)CO[C@@H]21 (stereo partly drawn) [Compound (2), 7α-methoxy-7β-(α-p-hydroxyphenyl-α-carboxyacetamido)-3-(1,3,4-thiadiazol-5-yl)thiomethyl-1-dethia-1-oxa-3-cephem-4-carboxylic acid]",MIC (P. aeruginosa 25619): 25 µg/mL
6.25,6.25,6.25,6.25,0.78,3.13,0.05,0.39,0.2,0.78,1.56,0.2,0.78,0.1,0.2,0.1,0.39,12.5,25,1.56,"CO[C@@]1(NC(=O)C(C(=O)O)c2ccsc2)C(=O)N2C(C(=O)O)=C(CSc3nnc(C)s3)CO[C@@H]21 (stereo partly drawn) [Compound (3), 7α-methoxy-7β-[α-(3-thienyl)-α-carboxyacetamido]-3-(2-methyl-1,3,4-thiadiazol-5-yl)thiomethyl-1-dethia-1-oxa-3-cephem-4-carboxylic acid]",MIC (P. aeruginosa 25619): 25 µg/mL
12.5,25,25,25,3.13,3.13,0.2,0.78,0.78,1.56,6.25,0.78,0.39,0.39,0.78,0.39,0.78,1.6,50,3.13,"CO[C@@]1(NC(=O)C(C(=O)O)c2ccc(O)cc2)C(=O)N2C(C(=O)O)=C(CSc3nnc(C)s3)CO[C@@H]21 (stereo partly drawn) [Compound (1), 7α-methoxy-7β-(α-p-hydroxyphenyl-α-carboxyacetamido)-3-(2-methyl-1,3,4-thiadiazol-5-yl)thiomethyl-1-dethia-1-oxa-3-cephem-4-carboxylic acid]",MIC (P. aeruginosa 25619): 25 µg/mL
